According to PMC8333425, “Discovery of a dual Ras and ARF6 inhibitor from a GPCR endocytosis screen” (Nature Communications, 2021):

Legend:
Assay in all cases: KINOMEscan kinase binding assay
[1] = target: T1, 384 kinases from the human genome (Homo sapiens, UniProt O14757); conditions: kinase CHEK1 (Entrez CHEK1)
T1 construct: purchased Eurofin/DiscoverX
Procedure, shortened: (§1)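 A panel of 384 human kinases was profiled by KINOMEscan binding in the presence of 10 µM compound. Kinase–ligand binding was given as percent of DMSO control, averaged from duplicates in a single run, with an S(10) selectivity score.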

[2] = target: T2, 384 kinases from the human genome (Homo sapiens, UniProt O15146); conditions: kinase MUSK (Entrez MUSK)
T2 construct: purchased Eurofin/DiscoverX
Procedure, shortened: as §1

[3] = target: T3, 384 kinases from the human genome (Homo sapiens, UniProt P07949); conditions: kinase RET (Entrez RET)
T3 construct: purchased Eurofin/DiscoverX
Procedure, shortened: as §1

[4] = target: T4, 384 kinases from the human genome (Homo sapiens, UniProt P21860); conditions: kinase ERBB3 (Entrez ERBB3)
T4 construct: purchased Eurofin/DiscoverX
Procedure, shortened: as §1

[5] = target: T5, 384 kinases from the human genome (Homo sapiens, UniProt P36894); conditions: kinase BMPR1A (Entrez BMPR1A)
T5 construct: purchased Eurofin/DiscoverX
Procedure, shortened: as §1

[6] = target: T6, 384 kinases from the human genome (Homo sapiens, UniProt P42679); conditions: kinase CTK (Entrez MATK)
T6 construct: purchased Eurofin/DiscoverX
Procedure, shortened: as §1

[7] = target: T7, 384 kinases from the human genome (Homo sapiens, UniProt P49137); conditions: kinase MAPKAPK2 (Entrez MAPKAPK2)
T7 construct: purchased Eurofin/DiscoverX
Procedure, shortened: as §1

[8] = target: T8, 384 kinases from the human genome (Homo sapiens, UniProt P49761); conditions: kinase CLK3 (Entrez CLK3)
T8 construct: purchased Eurofin/DiscoverX
Procedure, shortened: as §1

[9] = target: T9, 384 kinases from the human genome (Homo sapiens, UniProt P51955); conditions: kinase NEK2 (Entrez NEK2)
T9 construct: purchased Eurofin/DiscoverX
Procedure, shortened: as §1

[10] = target: T10, 384 kinases from the human genome (Homo sapiens, UniProt Q04771); conditions: kinase ACVR1 (Entrez ACVR1)
T10 construct: purchased Eurofin/DiscoverX
Procedure, shortened: as §1

[11] = target: T11, 384 kinases from the human genome (Homo sapiens, UniProt Q13627); conditions: kinase DYRK1A (Entrez DYRK1A)
T11 construct: purchased Eurofin/DiscoverX
Procedure, shortened: as §1

[12] = target: T12, 384 kinases from the human genome (Homo sapiens, UniProt Q13873); conditions: kinase BMPR2 (Entrez BMPR2)
T12 construct: purchased Eurofin/DiscoverX
Procedure, shortened: as §1

[13] = target: T13, 384 kinases from the human genome (Homo sapiens, UniProt Q6XUX3); conditions: kinase RIPK5 (Entrez DSTYK)
T13 construct: purchased Eurofin/DiscoverX
Procedure, shortened: as §1

[14] = target: T14, 384 kinases from the human genome (Homo sapiens, UniProt Q7L7X3); conditions: kinase TAOK1 (Entrez TAOK1)
T14 construct: purchased Eurofin/DiscoverX
Procedure, shortened: as §1

[15] = target: T15, 384 kinases from the human genome (Homo sapiens, UniProt Q8N4C8); conditions: kinase MINK (Entrez MINK1)
T15 construct: purchased Eurofin/DiscoverX
Procedure, shortened: as §1

[16] = target: T16, 384 kinases from the human genome (Homo sapiens, UniProt Q8N568); conditions: kinase DCAMKL2 (Entrez DCLK2)
T16 construct: purchased Eurofin/DiscoverX
Procedure, shortened: as §1

[17] = target: T17, 384 kinases from the human genome (Homo sapiens, UniProt Q8NE63); conditions: kinase HIPK4 (Entrez HIPK4)
T17 construct: purchased Eurofin/DiscoverX
Procedure, shortened: as §1

[18] = target: T18, 384 kinases from the human genome (Homo sapiens, UniProt Q8NEB9); conditions: kinase VPS34 (Entrez PIK3C3)
T18 construct: purchased Eurofin/DiscoverX
Procedure, shortened: as §1

[19] = target: T19, 384 kinases from the human genome (Homo sapiens, UniProt Q8WU08); conditions: kinase YANK1 (Entrez STK32A)
T19 construct: purchased Eurofin/DiscoverX
Procedure, shortened: as §1

[20] = target: T20, 384 kinases from the human genome (Homo sapiens, UniProt Q9BQI3); conditions: kinase EIF2AK1 (Entrez EIF2AK1)
T20 construct: purchased Eurofin/DiscoverX
Procedure, shortened: as §1

[21] = target: T21, 384 kinases from the human genome (Homo sapiens, UniProt Q9H3Y6); conditions: kinase SRMS (Entrez SRMS)
T21 construct: purchased Eurofin/DiscoverX
Procedure, shortened: as §1

[22] = target: T22, 384 kinases from the human genome (Homo sapiens, UniProt Q9H422); conditions: kinase HIPK3 (Entrez HIPK3)
T22 construct: purchased Eurofin/DiscoverX
Procedure, shortened: as §1

[23] = target: T23, 384 kinases from the human genome (Homo sapiens, UniProt Q9H4B4); conditions: kinase PLK3 (Entrez PLK3)
T23 construct: purchased Eurofin/DiscoverX
Procedure, shortened: as §1

[24] = target: T24, 384 kinases from the human genome (Homo sapiens, UniProt Q9P289); conditions: kinase MST4 (Entrez MST4)
T24 construct: purchased Eurofin/DiscoverX
Procedure, shortened: as §1

[25] = target: T25, 384 kinases from the human genome (Homo sapiens, UniProt Q9UPE1); conditions: kinase SRPK3 (Entrez SRPK3)
T25 construct: purchased Eurofin/DiscoverX
Procedure, shortened: as §1

[26] = target: T26, 384 kinases from the human genome (Homo sapiens, UniProt Q9UQ88); conditions: kinase CDC2L2 (Entrez CDC2L2)
T26 construct: purchased Eurofin/DiscoverX
Procedure, shortened: as §1

T9 sequence (P51955 whole entry): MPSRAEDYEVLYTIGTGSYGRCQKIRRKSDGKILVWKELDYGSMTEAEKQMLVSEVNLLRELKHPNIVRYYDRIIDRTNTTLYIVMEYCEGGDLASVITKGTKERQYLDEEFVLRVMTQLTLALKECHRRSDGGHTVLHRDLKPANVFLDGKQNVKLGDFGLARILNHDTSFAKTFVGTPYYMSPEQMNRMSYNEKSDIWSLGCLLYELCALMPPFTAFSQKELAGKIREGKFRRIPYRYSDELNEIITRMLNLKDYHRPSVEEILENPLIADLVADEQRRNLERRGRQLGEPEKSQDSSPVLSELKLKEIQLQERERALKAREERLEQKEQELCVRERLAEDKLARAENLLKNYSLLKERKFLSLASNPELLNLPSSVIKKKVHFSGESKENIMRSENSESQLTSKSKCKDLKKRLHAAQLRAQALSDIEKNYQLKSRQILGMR
T19 sequence (Q8WU08 whole entry): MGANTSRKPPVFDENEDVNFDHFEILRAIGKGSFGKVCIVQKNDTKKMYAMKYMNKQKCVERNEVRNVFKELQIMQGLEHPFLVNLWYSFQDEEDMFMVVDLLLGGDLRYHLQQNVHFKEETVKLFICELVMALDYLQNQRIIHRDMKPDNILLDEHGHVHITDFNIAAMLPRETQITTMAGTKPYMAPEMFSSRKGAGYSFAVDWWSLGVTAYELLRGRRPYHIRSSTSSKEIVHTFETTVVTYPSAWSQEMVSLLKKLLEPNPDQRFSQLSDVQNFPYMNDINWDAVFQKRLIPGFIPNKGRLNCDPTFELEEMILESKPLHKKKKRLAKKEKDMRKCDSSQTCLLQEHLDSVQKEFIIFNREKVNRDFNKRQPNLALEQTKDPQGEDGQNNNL
T8 sequence (P49761 whole entry): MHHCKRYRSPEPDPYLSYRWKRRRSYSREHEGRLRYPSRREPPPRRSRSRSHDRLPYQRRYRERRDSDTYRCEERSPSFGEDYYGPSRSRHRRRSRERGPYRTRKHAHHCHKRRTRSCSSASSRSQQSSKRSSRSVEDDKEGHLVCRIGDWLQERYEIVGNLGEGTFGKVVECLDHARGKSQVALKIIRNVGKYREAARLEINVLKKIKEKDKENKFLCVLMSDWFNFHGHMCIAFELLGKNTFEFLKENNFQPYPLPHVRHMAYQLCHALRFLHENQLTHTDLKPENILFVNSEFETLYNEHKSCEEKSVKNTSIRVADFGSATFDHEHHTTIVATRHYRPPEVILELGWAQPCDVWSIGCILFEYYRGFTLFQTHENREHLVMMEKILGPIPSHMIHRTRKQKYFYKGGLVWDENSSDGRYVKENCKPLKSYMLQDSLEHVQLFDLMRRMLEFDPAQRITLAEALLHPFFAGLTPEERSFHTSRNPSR
T16 sequence (Q8N568 whole entry): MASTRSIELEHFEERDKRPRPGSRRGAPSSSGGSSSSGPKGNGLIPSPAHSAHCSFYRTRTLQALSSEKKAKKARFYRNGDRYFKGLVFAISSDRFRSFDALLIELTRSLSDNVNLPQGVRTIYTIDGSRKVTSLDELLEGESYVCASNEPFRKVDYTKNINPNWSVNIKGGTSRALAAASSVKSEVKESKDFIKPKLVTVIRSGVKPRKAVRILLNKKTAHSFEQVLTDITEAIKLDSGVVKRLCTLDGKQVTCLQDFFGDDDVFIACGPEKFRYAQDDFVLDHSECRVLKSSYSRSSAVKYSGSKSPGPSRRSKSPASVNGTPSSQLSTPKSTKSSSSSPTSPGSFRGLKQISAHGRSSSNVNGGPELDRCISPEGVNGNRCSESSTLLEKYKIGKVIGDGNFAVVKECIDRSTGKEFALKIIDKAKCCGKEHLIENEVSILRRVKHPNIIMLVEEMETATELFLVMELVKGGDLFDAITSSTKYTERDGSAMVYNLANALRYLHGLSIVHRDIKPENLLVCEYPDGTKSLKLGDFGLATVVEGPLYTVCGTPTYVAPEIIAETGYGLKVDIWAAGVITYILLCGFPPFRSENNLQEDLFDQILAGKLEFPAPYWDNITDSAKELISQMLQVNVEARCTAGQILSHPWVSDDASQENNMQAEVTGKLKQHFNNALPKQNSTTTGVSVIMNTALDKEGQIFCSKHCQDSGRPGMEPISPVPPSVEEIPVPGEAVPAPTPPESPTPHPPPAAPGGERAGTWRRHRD
T2 sequence (O15146 24-869): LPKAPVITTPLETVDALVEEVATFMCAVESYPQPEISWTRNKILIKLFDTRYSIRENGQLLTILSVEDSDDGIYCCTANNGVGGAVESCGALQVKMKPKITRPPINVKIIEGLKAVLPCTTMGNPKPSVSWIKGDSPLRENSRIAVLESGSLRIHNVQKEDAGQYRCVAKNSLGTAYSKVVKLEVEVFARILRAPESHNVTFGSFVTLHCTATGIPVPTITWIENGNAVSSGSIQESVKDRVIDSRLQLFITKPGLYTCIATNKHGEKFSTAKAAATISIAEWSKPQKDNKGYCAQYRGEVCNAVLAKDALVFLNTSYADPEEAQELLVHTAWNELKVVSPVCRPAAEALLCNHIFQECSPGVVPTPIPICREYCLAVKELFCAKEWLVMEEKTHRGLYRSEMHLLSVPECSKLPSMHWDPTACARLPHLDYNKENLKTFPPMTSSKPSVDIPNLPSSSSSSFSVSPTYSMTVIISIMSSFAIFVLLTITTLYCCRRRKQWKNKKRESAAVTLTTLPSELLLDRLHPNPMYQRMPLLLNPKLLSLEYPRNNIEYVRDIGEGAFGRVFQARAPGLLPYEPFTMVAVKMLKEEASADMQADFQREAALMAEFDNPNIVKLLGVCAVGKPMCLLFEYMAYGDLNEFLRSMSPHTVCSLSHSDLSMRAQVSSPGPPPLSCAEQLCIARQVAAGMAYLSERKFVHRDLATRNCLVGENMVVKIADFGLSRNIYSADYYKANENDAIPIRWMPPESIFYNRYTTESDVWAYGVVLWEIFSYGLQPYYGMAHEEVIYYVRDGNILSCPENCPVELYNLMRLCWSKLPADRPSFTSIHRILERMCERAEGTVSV
T3 sequence (P07949 29-1114): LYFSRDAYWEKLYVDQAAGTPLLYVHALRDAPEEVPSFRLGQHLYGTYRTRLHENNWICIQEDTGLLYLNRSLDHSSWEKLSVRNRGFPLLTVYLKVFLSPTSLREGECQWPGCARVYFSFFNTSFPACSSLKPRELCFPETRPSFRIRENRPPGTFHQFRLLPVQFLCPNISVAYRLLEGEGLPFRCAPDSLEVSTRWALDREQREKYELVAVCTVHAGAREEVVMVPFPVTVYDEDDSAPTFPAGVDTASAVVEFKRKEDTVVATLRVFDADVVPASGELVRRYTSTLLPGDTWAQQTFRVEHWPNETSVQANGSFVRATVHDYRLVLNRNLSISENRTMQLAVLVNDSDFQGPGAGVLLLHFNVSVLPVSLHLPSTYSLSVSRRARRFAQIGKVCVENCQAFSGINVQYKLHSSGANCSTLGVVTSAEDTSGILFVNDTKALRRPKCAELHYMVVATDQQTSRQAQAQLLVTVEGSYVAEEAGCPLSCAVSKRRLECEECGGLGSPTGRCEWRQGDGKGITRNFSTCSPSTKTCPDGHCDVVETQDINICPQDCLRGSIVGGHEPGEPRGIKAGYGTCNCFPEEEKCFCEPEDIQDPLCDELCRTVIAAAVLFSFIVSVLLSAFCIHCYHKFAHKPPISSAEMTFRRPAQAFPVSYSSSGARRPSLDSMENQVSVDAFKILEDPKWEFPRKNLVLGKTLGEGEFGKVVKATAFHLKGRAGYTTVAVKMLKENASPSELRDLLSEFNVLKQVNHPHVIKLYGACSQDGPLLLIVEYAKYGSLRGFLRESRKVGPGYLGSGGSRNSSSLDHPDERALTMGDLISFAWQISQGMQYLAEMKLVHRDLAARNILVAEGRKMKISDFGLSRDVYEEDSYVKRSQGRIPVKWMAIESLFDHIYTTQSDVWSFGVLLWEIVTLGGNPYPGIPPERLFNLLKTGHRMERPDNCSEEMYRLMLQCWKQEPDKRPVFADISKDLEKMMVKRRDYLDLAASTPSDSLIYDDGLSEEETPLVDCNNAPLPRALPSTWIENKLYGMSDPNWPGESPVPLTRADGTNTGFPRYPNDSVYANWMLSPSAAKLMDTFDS
T18 sequence (Q8NEB9 whole entry): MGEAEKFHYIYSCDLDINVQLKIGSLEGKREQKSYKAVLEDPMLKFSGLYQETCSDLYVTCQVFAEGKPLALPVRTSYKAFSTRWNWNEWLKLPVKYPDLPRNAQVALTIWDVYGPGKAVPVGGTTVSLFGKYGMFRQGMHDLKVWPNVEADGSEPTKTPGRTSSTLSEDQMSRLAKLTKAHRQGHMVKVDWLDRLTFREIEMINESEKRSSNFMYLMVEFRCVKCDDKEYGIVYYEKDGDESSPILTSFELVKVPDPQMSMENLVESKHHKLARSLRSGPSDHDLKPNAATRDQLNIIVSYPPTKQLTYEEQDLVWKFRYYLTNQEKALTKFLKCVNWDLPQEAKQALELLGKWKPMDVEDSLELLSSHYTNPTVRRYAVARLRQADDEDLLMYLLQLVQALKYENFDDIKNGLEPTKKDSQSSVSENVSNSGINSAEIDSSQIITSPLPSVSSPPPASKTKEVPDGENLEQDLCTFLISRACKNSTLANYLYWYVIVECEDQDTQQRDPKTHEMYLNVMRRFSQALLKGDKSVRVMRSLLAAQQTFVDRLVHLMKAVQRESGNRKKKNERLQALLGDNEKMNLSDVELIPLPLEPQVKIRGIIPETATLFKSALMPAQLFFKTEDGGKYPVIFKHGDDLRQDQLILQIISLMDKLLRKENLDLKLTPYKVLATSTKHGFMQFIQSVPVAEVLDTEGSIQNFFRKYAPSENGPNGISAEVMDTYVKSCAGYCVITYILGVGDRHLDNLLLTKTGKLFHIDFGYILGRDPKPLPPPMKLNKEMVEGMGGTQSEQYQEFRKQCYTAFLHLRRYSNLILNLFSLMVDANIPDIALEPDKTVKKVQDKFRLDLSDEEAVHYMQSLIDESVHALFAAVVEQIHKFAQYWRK

In the case of `CC(C)C(=O)N1CCN(c2ccc(NC(=O)c3cc4ccccc4o3)cc2Cl)CC1` [Compound 21], the “Percent Control” value [1] is reported as 92%, the “Percent Control” value [2] is reported as 96% and the “Percent Control” value [3] is reported as 83%. The “Percent Control” value [4] was 83%, the “Percent Control” value [5] was 79% and the “Percent Control” value [6] was 95%. For the same compound, the “Percent Control” value [7] was 100%, the “Percent Control” value [8] was 100% and the “Percent Control” value [9] was 91%. For the same compound, the “Percent Control” value [10] was 70%, the “Percent Control” value [11] was 98% and the “Percent Control” value [12] was 88%. For the same compound, the “Percent Control” value [13] was 78%, the “Percent Control” value [14] was 100% and the “Percent Control” value [15] was 63%. The “Percent Control” value [16] was 99%, the “Percent Control” value [17] was 100% and the “Percent Control” value [18] was 100%. The “Percent Control” value [19] was 81%, the “Percent Control” value [20] was 98% and the “Percent Control” value [21] was 100%. The “Percent Control” value [22] was 93%, the “Percent Control” value [23] was 81% and the “Percent Control” value [24] was 100%. For the same compound, the “Percent Control” value [25] was 100% and the “Percent Control” value [26] was 95%.
